Source: PMC11018007, “Synthesis, carbonic anhydrase inhibition studies and modelling investigations of phthalimide–hydantoin hybrids” (Journal of Enzyme Inhibition and Medicinal Chemistry, 2024)

Columns and labels:
hCA II = target: T1, hCA II (Homo sapiens, UniProt P00918); assay: stopped-flow CO2 hydrase assay; format: biochemical
T1 construct: gene CA2; recombinant from plasmid pACA/hCA II, E. coli BL21 (DE3)
Source text: (§1) stopped-flow CO2 hydrase assay on hCA II

hCA VI = target: T2, hCA VI (Homo sapiens, UniProt P23280); assay: stopped-flow CO2 hydrase assay; format: biochemical
T2 construct: gene CA6; secreted isoform; in-house recombinant protein; construct not described here
Source text: stopped-flow CO2 hydrase assay on hCA VI

hCA VII = target: T3, hCA VII (Homo sapiens, UniProt P43166); assay: stopped-flow CO2 hydrase assay; format: biochemical
T3 construct: gene CA7; in-house recombinant protein; construct not described here
Source text: stopped-flow CO2 hydrase assay on hCA VII

hCA I = target: T4, hCA I (Homo sapiens, UniProt P00915); assay: stopped-flow CO2 hydrase assay; format: biochemical
T4 construct: gene CA1; recombinant from plasmid pACA/hCA I, E. coli BL21 (DE3)
Source text: stopped-flow CO2 hydrase assay on hCA I

hCA IX = target: T5, hCA IX (Homo sapiens, UniProt Q16790); assay: stopped-flow CO2 hydrase assay; format: biochemical
T5 construct: gene CA9
Source text: stopped-flow CO2 hydrase assay on hCA IX

[1] = stopped-flow CO2 hydrase assay; format: biochemical, Homo sapiens; settings: read-out: KI (μM) ^a / hCA I
Source text: as §1

T2 sequence (P23280 18-308): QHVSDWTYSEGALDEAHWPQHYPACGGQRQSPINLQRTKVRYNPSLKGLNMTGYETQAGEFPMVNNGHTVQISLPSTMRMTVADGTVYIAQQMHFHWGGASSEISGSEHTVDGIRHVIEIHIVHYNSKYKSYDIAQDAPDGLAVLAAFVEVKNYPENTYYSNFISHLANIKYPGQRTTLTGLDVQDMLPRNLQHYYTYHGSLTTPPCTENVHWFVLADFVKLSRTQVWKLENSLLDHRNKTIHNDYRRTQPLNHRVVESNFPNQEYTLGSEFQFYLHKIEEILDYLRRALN
T3 sequence (P43166 whole entry): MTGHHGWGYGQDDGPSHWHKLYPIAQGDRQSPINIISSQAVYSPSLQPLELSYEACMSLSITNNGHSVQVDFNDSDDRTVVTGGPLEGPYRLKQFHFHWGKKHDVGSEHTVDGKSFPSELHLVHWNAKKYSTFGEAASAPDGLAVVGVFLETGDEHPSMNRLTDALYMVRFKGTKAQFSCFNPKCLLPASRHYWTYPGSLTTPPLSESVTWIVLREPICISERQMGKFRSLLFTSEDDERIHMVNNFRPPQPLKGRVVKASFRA
T4 sequence (P00915 2-261): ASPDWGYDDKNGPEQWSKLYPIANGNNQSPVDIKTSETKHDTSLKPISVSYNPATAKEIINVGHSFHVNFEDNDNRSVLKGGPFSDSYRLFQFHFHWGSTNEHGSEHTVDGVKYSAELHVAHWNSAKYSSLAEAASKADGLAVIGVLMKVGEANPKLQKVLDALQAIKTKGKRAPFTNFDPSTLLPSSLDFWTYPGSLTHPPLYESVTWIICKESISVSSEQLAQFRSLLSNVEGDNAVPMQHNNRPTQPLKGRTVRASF

Row | SMILES | Ki (hCA II) | Ki (hCA VI) | Ki (hCA VII) | Ki (hCA I) | Ki (hCA IX) | Ki [1]
1 | O=C1CN(N2C(=O)c3ccccc3C2=O)C(=O)N1 [3a, Potassium 3-(1,3-dioxoisoindolin-2-yl)-2,5-dioxoimidazolidin-1-ide] | 6.94 µM | 0.405 µM | 0.075 µM | > 100 µM | 0.331 µM | –
2 | O=C1CN(N2C(=O)c3ccc([N+](=O)[O-])cc3C2=O)C(=O)N1 [3b, Potassium 3-(5-nitro-1,3-dioxoisoindolin-2-yl)-2,5-dioxoimidazolidin-1-ide] | 8.99 µM | 0.701 µM | 0.163 µM | > 100 µM | 0.488 µM | –
3 | O=C1CN(NC(=O)c2cc([N+](=O)[O-])ccc2C(=O)O)C(=O)N1 [compound 5, 2-((2,4-Dioxoimidazolidin-1-yl)carbamoyl)-4-nitrobenzoic acid] | 58.6 µM | 10.5 µM | 13.9 µM | > 100 µM | 4.06 µM | –

Now from value to compound:

Row | Ki (hCA II) | Ki (hCA VI) | Ki (hCA VII) | Ki (hCA I) | Ki (hCA IX) | Ki [1] | SMILES
4 | – | 57.7 µM | 33.7 µM | > 100 µM | 3.73 µM | > 100 µM | O=C1CN(N2C(=O)c3ccccc3C2=O)C(=O)N1Cc1ccccc1 [6a, 2-(3-Benzyl-2,4-dioxoimidazolidin-1-yl)isoindoline-1,3-dione]
5 | – | 40.2 µM | 45.9 µM | > 100 µM | 2.73 µM | > 100 µM | O=C1CN(N2C(=O)c3ccc([N+](=O)[O-])cc3C2=O)C(=O)N1Cc1ccccc1 [6b, 2-(3-Benzyl-2,4-dioxoimidazolidin-1-yl)-5-nitroisoindoline-1,3-dione]
6 | – | 50.2 µM | 37.6 µM | > 100 µM | 5.68 µM | > 100 µM | O=C1CN(N2C(=O)c3ccccc3C2=O)C(=O)N1Cc1ccc([N+](=O)[O-])cc1 [6c, 2-(3-(4-Nitrobenzyl)-2,4-dioxoimidazolidin-1-yl)isoindoline-1,3-dione]
7 | – | 49.8 µM | 26.3 µM | > 100 µM | 4.58 µM | > 100 µM | O=C1CN(N2C(=O)c3ccc([N+](=O)[O-])cc3C2=O)C(=O)N1Cc1ccc([N+](=O)[O-])cc1 [6d, 5-Nitro-2-(3-(4-nitrobenzyl)-2,4-dioxoimidazolidin-1-yl)isoindoline-1,3-dione]
8 | – | 48.5 µM | 59.1 µM | > 100 µM | 4.82 µM | > 100 µM | N#Cc1ccc(CN2C(=O)CN(N3C(=O)c4ccccc4C3=O)C2=O)cc1 [6e, 4-((3-(1,3-Dioxoisoindolin-2-yl)-2,5-dioxoimidazolidin-1-yl)methyl)benzonitrile]
9 | – | 64.3 µM | 50.5 µM | > 100 µM | 6.49 µM | > 100 µM | N#Cc1ccc(CN2C(=O)CN(N3C(=O)c4ccc([N+](=O)[O-])cc4C3=O)C2=O)cc1 [6f, 4-((3-(5-Nitro-1,3-dioxoisoindolin-2-yl)-2,5-dioxoimidazolidin-1-yl)methyl)benzonitrile]
